“Also recorded” adds a separate entry of the source.
Tested on: Rad17 self-interaction (Rad17/Rad17)
Assay: DIPI assay (DNA-damage-induced increased protein interaction), two-hybrid colony growth on -His medium
Type: cell-based, Saccharomyces cerevisiae
Conditions: for Rad17 self-interaction response in DIPI assay (colony growth on -His medium): wild-type reporter strain CG1945, pCAD1-Rad17/pGBT9-Rad17, plate assay
Excerpt: A reporter strain is co-transformed with Rad17-Gal4-DNA-binding-domain and Rad17-Gal4-transcriptional-activation-domain fusions (“bait” and “prey” plasmids). Enhanced protein-protein interaction is visualized by activation of a Gal4responsive chromosomal reporter gene construct required for histidine synthesis (HIS3) (FIG. 1).
These cells are exposed to a DNA-damaging agent in form of a gradient on a histidine-omission plate. […] It should also be mentioned that the use of a blue color marker (LacZ gene) is possible. It is not unusual that the context of a promoter affects the specific interaction and may be easily addressed by switching to one of a wide variety or readily available commercial and non-commercial expression systems.
[pCAD1-Rad17/pGBT9-Rad17], respectively. […] Responses in a wild-type reporter strain (WT, left two plates) and a mutant deleted for topoisomerase I (top1δ, right) are compared. Cells of the reporter strain (CG1945), previously co-transformed with Rad17 bait/prey Gal4-fusions (pCAD1-Rad17/pGBT9-Rad17) were plated as indicated. The genotoxic agent CPT or DMSO (solvent control) was applied on a filter paper.
Using manual replicating on large petri dishes, these were transferred to -His plates that had been inoculated with cells of a reporter strain, co-transformed with Rad17 bait/prey plasmids as described.
DIPI assay was performed in a high-throughput mode. The Petri dish assay was adapted to the 96 well plate format in order to use conventional high-throughput machinery. Two protocols were explored (FIG. 4). In both cases, the selective agar medium lacking leucine, tryptophan and histidine was poured in the plate wells. In protocol 1, cell suspension was pipeted on top of the plate and, after drying, a sample of CPT. In protocol 2, cells were mixed with agar and pipeted, resulting in a cell-containing agar layer. CPT was added on top. After 3-4 days, the plates were evaluated for colony growth.
All cells will be exposed to a CPT concentration that leads to some low amount of colony formation on selective medium. Briefly, the haploid two-hybrid reporter strain CG1945 (4) is co-transformed with plasmids pGBT9Rad17 and pCAD1-Rad17. […] The selected co-transformant is grown up to stationary phase in yeast synthetic medium (SM) without tryptophan and leucine to retain both plasmids. Incubation period is typically two days at 30° C. with shaking. The standard recipe for yeast SM calls for 2% dextrose, 0.67% yeast nitrogen base with ammonium sulfate/without amino acids (e.g. from US Biological) and a -Trp-Leu amino acid dropout mix (Qbiogene, Inc.).

Structure (SMILES) | Rad17 self-interaction response in DIPI assay (colony growth on -His medium) | number of colonies in DIPI assay, 96 well plate format (96 well plate, after 3-4 days, compared to control (DMSO), listed as CPT) | Rad17 homomeric interaction response in DIPI assay (top1δ background (topoisomerase I deleted)) | Rad17 self-interaction response in DIPI assay (colony growth on -His medium) (listed as CPT)
CC[C@@]1(OC(=O)CN)C(=O)OCc2c1cc1n(c2=O)Cc2cc3ccccc3nc2-1.Cl [NSC606985, glycine 4-ethyl-3,4,12,14-tetrahydro-3,14-dioxo-1H-pyrano[3′, 4′:6,7]indolizino[1,2-b]quinolin-4-yl ester, (S)-monohydrochloride] | increasing Rad17 self-interaction | – | – | –
CC[C@@]1(O)C(=O)OCc2c1cc1n(c2=O)Cc2cc3ccccc3nc2-1 [camptothecin] | very responsive; also recorded: increasing Rad17 self-interaction | number of colonies increased significantly; also recorded: number of colonies is increased | absence of increased homomeric Rad17 interaction | positive CPT response

From patent US20080045419A1, “Screening Assay” (priority 2006, published 2008)
